Reference: patent US7341992B2, “Lectin-like domain of thrombomodulin and its therapeutic use” (Vlaams Interuniversitair Instituut Voor Biotechnologie VZW, priority 2001, dated 2008)

Tested on: TM^wt/wt endothelial cells
Experiment: Static adhesion assay: murine PMNs on endothelial cells from TM^wt/wt mice
Assay type: cell-based
Conditions: addition of PPACK to exclude thrombin effect
Text: Table 8: Static adhesion assay. […] This is a representative experiment performed 3 times, on 3 different clones each. For each experiment, 5 wells were used for each condition, and adherent leukocytes in 15 microscopic fields were counted.
Since TM expression is not restricted to vascular endothelial cells, but is also synthesized by other cells including neutrophils and monocytes, we considered the possibility that the increase in leukocyte efflux into the lungs might be a result of TM alterations on either the neutrophils and/or the vascular endothelium. fEND.5 cells are an established PymT transformed murine endothelial cell line that expresses full-length, functional TM on the cell surface. […] Adhesion and rolling of neutrophils to transformed endothelial cells derived from the TM^wt/wt and TM^LeD/LeD mice were consequently evaluated. […] This was determined not to be an endothelial cell clone-specific artifact, as 3 different clones of endothelial cells were evaluated with similar results. There was also a significant 3-fold increase in PMN and lymphocyte adhesion to resting TM^LeD/LeD endothelial cells as compared to TM^wt/wt endothelial cells (Table 8). […]
Neutrophils and lymphocytes were isolated from bone marrow according to the method of Lowell and Berton ^35. Each population was assessed to be over 95% pure by microscopic analysis after Wright staining. […]

Q: `NC(N)=NCCC[C@H](NC(=O)[C@@H]1CCCN1C(=O)[C@H](N)Cc1ccccc1)C(=O)CCl` [PPACK] was tested. Which “effect on the results of the adhesion assays” value did it give?
A: Its value is “no effect”.
